According to article PMC7473970, “Preformulation Studies of a Stable PTEN-PDZ Lipopeptide Able to Cross an In Vitro Blood-Brain-Barrier Model as a Potential Therapy for Alzheimer’s Disease” (Pharmaceutical Research, 2020):
Residues, ends and D or L forms follow the SMILES beside them.

Assays:
[1] = In vitro stability in 50% liver homogenate; assay type: in vitro ADME, mouse; settings: 37°C, HPLC-UV 220 nm, one phase decay, least square fit, n = 3
Procedure: (§1) The samples were analyzed at 40°C on a Phenomenex Lichrosorb RP8 C8 column (4.0 mm × 250 mm, 5 μm), using the gradient elution method on an Agilent HPLC system (Agilent Technologies, Cheadle, UK) equipped with an 1100 series degasser, quaternary pump, autosampler, and column heater, and attached to an Agilent 1200 series PDA detector and a 1250 series fluorescent detector. The flow rate was set at 1.2 mL min^-1, and the injection volume was set at 40 μL, while detection was performed at 220 nm. The mobile phase was a mixture of mobile phase A (0.1% TFA in water) and phase B (0.08% TFA in acetonitrile), and in the first 5 min, the mobile phase was an 8:2 ratio of A:B (v/v) and from 5 to 15 min the percentage of B was raised from 8:2 to 1:9 (v/v). Linear calibration curves were constructed for both peptides between 0.1–100 μg.mL^−1. The retention time for the human Lau–PTEN-PDZ, mouse Lau–PTEN-PDZ, human Myr–PTEN-PDZ, and mouse Myr–PTEN-PDZ was 12.03, 11.60, 13.68, and 13.91, respectively.
The liver and brain of the mice were excised from […] CD-1 male mice (7 weeks-old: Charles River Laboratories) sacrificed with CO2, and the tissue was frozen immediately with liquid nitrogen prior to storage at −80°C. The liver and brain tissue were thawed and homogenized on ice in PBS (2 mL/g of tissue) using a glass 3 mL tissue homogenizer (20 strokes per sample), and the liver and brain homogenates were centrifuged (Heraeus Multifuge 3sf, Fisher Scientific, Basingstoke, UK) at 4300 g for 60 min at 4°C and at 3000 g for 20 min at 4°C, respectively. The supernatant was stored at −80°C, diluted 1:1 (v/v) with PBS (1x, pH 7.4), and used in stability studies. Peptides stocks (5 mM in DMSO) were prepared and maintained at −20°C prior to performing stability studies. These stock solutions (120 μL) were added to the diluted pre-warmed (37°C) liver or brain homogenate (50% v/v, 1080 μL) with agitation (100 rpm: Grant Aqua Waterbath), and samples (80 μL) were taken at 0, 5, 10, 15, 30, 45, 60, 90, 120, 180, 240, 360 and 1440 min, and diluted with ice-cold acetonitrile (80 μL). Samples were vortexed and left at −80°C at least overnight to allow for maximum protein precipitation, the samples were vortexed again for 15 min, centrifuged and the supernatant was analyzed by HPLC as described above.
The total protein concentration in the homogenates was determined using the Bradford protein assay ([7],[15]) and BSA as a standard. Ten stock solutions of BSA were prepared in PBS between 0.1–1 mg mL^−1, and 40 μL of each of the diluted stocks were added to 1.2 mL of Bradford reagent and incubated at room temperature for 5 min. The absorbance was recorded at 595 nm using a Multiskan GO spectrophotometer and the SkanIt software (Thermo Scientific, Paisley, UK). A linear calibration curve was obtained in this range that was used to extrapolate the protein content of 1:100 v/v stock solutions of 50% mouse plasma, liver, and brain homogenates diluted in PBS.

[2] = Permeability across in vitro 2D human blood-brain barrier model; assay type: in vitro ADME; settings: read-out: Papp0-4h, Experiment 2
hCMEC/D3 cells = assay: MTT metabolic activity assay in hCMEC/D3 cells; assay type: cell-based, human; settings: 24 h versus 4 h exposure
Procedure: HCMEC/D3 (passage number 32–40) cultured in EBM-2 (Lonza) supplemented with the EGM-2 Bullet Kit™ (Lonza), and 2% v/v human serum (Sigma H3667, Batch: SLBW2276) were used to assess the cytotoxicity of lipidized peptides. The cells were subjected to routine mycoplasma testing and authenticated in house. The cells were seeded at 46,875 cells/cm^2 in complete medium, and allowed to attach overnight, refreshing the medium to treat the cells with peptide solutions. The peptide solutions were prepared from […] DMSO stocks at a final concentration between 1 and 400 μM in complete medium to ensure a final DMSO concentration of 0.5%, and 200 μL of the diluted stock was added to each well. The metabolic activity of the cells was measured after 4 and 24 h using the MTT (3-(4,5)-dimethylthiazol-2-yl)-2,5-diphenyltetrazolium bromide) assay. At the time points specified, the MTT solution was added to each well (20 μL at 5 mg.mL^−1 in PBS), and the cells were incubated for 4 h at 37°C. Subsequently, DMSO (100 μL) was added to dissolve the formazan crystals, and the absorbance was measured at 570 and 690 nm on a Multiskan Go microplate spectrophotometer, analyzing the data using the SkanIt software (Thermo Scientific, Paisley, UK). […]
IC50 values were calculated using Graphpad Prism 8.0 (San Diego, USA) and fitted using a non-linear regression model ([Inhibitor] vs. response (three parameters)).

[3] = In vitro stability in simulated intestinal fluid (mouse intestinal wash); assay type: in vitro ADME; settings: 120 μL of 5 mM DMSO stock in 1080 μL, 37°C, 0-1440 min, HPLC-UV 220 nm, n = 3
Procedure: as §1
The duodenum and ileum were excised from 10 non-fasted CD-1 male mice (7 weeks-old: Charles River Laboratories) that were sacrificed with CO2. Each duodenum and ileum were washed with 6 ml of phosphate buffer (50 mM, pH 6.63), and all the washes were pooled prior to centrifugation at 4000 rpm for 15 min at 4°C (Heraeus Multifuge 3sf) ([7],[15]). The intestinal wash was removed and frozen at −80°C prior to using it in stability studies without further dilution. Peptides stocks (5 mM in DMSO) were prepared and maintained at −20°C prior to performing stability studies. A stock peptide solution (120 μL) was added to the diluted pre-warmed (37°C) intestinal wash (1080 μL) with agitation at 100 rpm (Grant Aqua Waterbath), and samples (80 μL) were taken at 0, 15, 30, 45, 60, 90, 120, 180, 240, 360 and 1440 min, and diluted with ice-cold glacial acetic acid (17.5 M): acetonitrile (5:95 v/v, 80 μL) to quench the enzyme activity. Samples were vortexed and left in −80°C at least overnight to maximize protein precipitation, and after vortexing again for 15 min and centrifuging, the supernatant was analyzed by HPLC as described above.

[4] = 50% w/v mouse liver homogenate in PBS pH 7.4
[5] = Simulated intestinal fluid = undiluted pooled CD-1 mouse duodenum/ileum wash, phosphate buffer pH 6.63, one phase decay fit

CCCCCCCCCCCCCC(=O)N[C@@H](CCC(N)=O)C(=O)N[C@@H](Cc1c[nH]cn1)C(=O)N[C@@H](CO)C(=O)N[C@@H](CCC(N)=O)C(=O)N[C@H](C(=O)N[C@H](C(=O)N[C@@H](CCCCN)C(=O)N[C@H](C(=O)O)C(C)C)[C@@H](C)O)[C@@H](C)CC [Mouse Myr-PTEN-PDZ] (HELM PEPTIDE1{[CCCCCCCCCCCCCC(=O)[*:2]].Q.H.S.Q.I.T.K.V}$$$$V2.0)
k ([1]; 50% w/v CD-1 mouse liver homogenate in PBS pH 7.4, 120 μL of 5 mM DMSO stock in 1080 μL, 100 rpm, 0-1440 min): 0.51 h⁻¹ | t1/2 (h) [1, 4]: 1.36 h | t1/2 (min) [1, 4]: 81.66 min | Papp A→B at 100 μM [2]: 2.63 ± 0.08 ×10⁻⁶ cm/s | Recovery of cell metabolic activity after 24 h (hCMEC/D3 cells): did not allow the cells to recover after 24 h | k ([3]; Simulated intestinal fluid = undiluted pooled CD-1 mouse duodenum/ileum wash in 50 mM phosphate buffer pH 6.63, 100 rpm, one phase decay, least square fit): 0.15 h⁻¹ | t1/2 (h) [3, 5]: 4.52 h | t1/2 (min) [3, 5]: 271.02 min
